The values that follow are results of earlier work, collected in publication PMC7576618 (British Journal of Clinical Pharmacology, 2020).

For data set [1] the following is noted: humans; cited from earlier work.
Data set [2] has as its target mGlu2 receptor. To be noted: read-out: in vitro EC50 for mGlu2 receptor; cited from earlier work.
For data set [3], the target named is mGlu2 receptor. To be noted: read-out: EC50 (assay system used by Eli Lilly); cited from earlier work.
For data set [4] the following is noted: active compound LY2812223; cited from earlier work.

Where two headings read alike, the source gives them in different places.

As to `CSCC[C@H](N)C(=O)N[C@@]1(C(=O)O)CS(=O)(=O)[C@H]2[C@H](C(=O)O)[C@H]21` [LY2140023], the “plasma exposure of the prodrug relative to that of LY404039” value in data set [1] was “approximately 30%”.
Consider `N[C@@]1(C(=O)O)CC[C@H]2[C@H](C(=O)O)[C@H]21` [LY354740, (+)‐2‐aminobicyclo[3.1.0]hexane‐2,6‐dicarboxylic acid], for which the values for the EC50 at mGlu2 receptor [2] and at mGlu2 receptor [3] were 18.3 nM and 5.1 nM, respectively.
As to `C[C@H](N)C(=O)N[C@@]1(C(=O)O)C[C@@H](Sc2nnc[nH]2)[C@H]2[C@H](C(=O)O)[C@H]21` [LY2979165], the “plasma levels of prodrug relative to its active compound” value in data set [4] is recorded as under 1%.
